Results from US20220411525A1, “BCMA AS A TARGET FOR T CELL REDIRECTING ANTIBODIES IN B CELL LYMPHOMAS” (Janssen Pharmaceutica NV, priority 2021, published 2022).

Assays:
[1] = test system: primary CLL cells; experiment: BCMA level by flow cytometry on primary CLL cells after γ-secretase inhibition; assay type: cell-based, human; settings: 100 nM
Procedure: (§1) Primary CLL samples were stained for BCMA expression by flow cytometry and compared to isotype controls. […] As provided in FIG. 2A, CLL cells were cultured and basal levels of BCMA were assessed by flow cytometry and compared to isotype controls. (n=25). For FIG. 2B, CLL cells were treated for 24 or 48h with 0nM or 100 nM γ-secretase inhibitor and BCMA was assessed by flow cytometry. Values are represented as fold increase compared to medium control. (n=12-28). FIG. 2C provides basal levels of BCMA compared to isotype control among CLL patients with mutated or unmutated IgVH. (n=4-10). […] (n=4-12) The P value was calculated by Wilcoxon test (FIGS. 2A-2B), Mann Whitney test (FIGS. 2B, 2C, 2D) or paired t test (FIGS. 2E, F). […]
Flow cytometry. […] After antibody staining, samples were washed using PBA and acquired on BD FACS Canto or LSR Fortessa flow cytometer and analysed with FlowJo v10. To quantify number of cells using flow cytometry, 123count eBeads™ Counting Beads (Thermo Fisher Scientific) according to manufacturer's instructions. BCMA molecules per cell were determined by usage of PE Phycoerythrin Fluorescence Quantitation Kit (BD Biosciences).
BCMA characterization by flow cytometry and quantitative polymerase chain reaction. […] After 24 or 48 h BCMA was detected by flow cytometry as described above. Relative expression was calculated compared to isotype controls. […]

[2] = test system: primary CLL cells; experiment: Soluble BCMA ELISA in supernatants of CLL cells; assay type: cell-based, human; settings: 100 nM, 24-48 h
Procedure: as §1, with “(n=4-10). FIG. 2D illustrates the fold increase of BCMA after 24-48 h treatment with 100nM γ-secretase inhibitor compared to medium control among CLL patients with mutated or unmutated IgVH. (n=5-13). FIG. 2E provides the results of an assessment of BCMA mRNA relative to GAPDH control by qPCR after primary CLL samples were treated without or with 100 nM γ-secretase inhibitor for 24 h. (n=9).” for “(n=4-10).”
sBCMA ELISA. […] After 24 or 48 h supernatants were harvested and stored at −20° C. soluble BCMA (sBCMA) in supernatants were measured by ELISA using antibody pairs for BCMA.

C[C@H](NC(=O)[C@@H](O)c1cc(F)cc(F)c1)C(=O)N[C@@H]1C(=O)N(C)c2ccccc2-c2ccccc21 [Ly411575]
BCMA level on CLL cells ([1]; 24 h): small but significant upregulation of BCMA | BCMA level on CLL cells ([1]; 48 h, compared to 24 h): further enhanced | sBCMA levels in supernatants of CLL cells [2]: marked decreases
